Reference: PMC7232676, “Fragment-Based Design of Mycobacterium tuberculosis InhA Inhibitors” (Journal of Medicinal Chemistry, 2020)
Like-named read-outs stand apart in the source and are kept apart here.

Molecular target: InhA (Mycobacterium tuberculosis, UniProt P9WGR1)
Assay: InhA enzymatic assay (NADH oxidation at 340 nm, 2-trans-octanoyl-CoA substrate)
Type: biochemical
Description: The identified fragment hits were further evaluated by an InhA enzymatic assay using 2-trans-octanoyl-CoA as a substrate.[22]
The carboxylic acid in fragment 1 (P1) was replaced by an isosteric sulfonamide as a linker to synthesize compound 6 (Figure 2b). Docking experiments with Glide XP[23] […] All the synthesized compounds were tested at a concentration of 100 μM using the InhA enzymatic assay.
InhA activity was followed by a colorimetric assay that measured the oxidation of NADH at 340 nm in the presence of 2-trans-octanoyl-CoA as described before in a buffer that contained 30 mM PIPES, pH 7.5, 50 mM NaCl, 0.1 mM EDTA, and 100 nM InhA.[26] This was preincubated for 10 min at room temperature with 0.25 mM NADH and varying concentrations of the compounds with 1% (v/v) DMSO in a 150 μL reaction volume. The reaction was started by the addition of 2-trans-octanoyl-CoA at a final concentration of 1.5 mM, prepared as described previously.[22] Reactions were followed for 20 min using a plate reader (CLARIOstar, BMG LABTECH).

[1] = 100 μM compound, read-out: Inh % (inhibition percentage of InhA)
[2] = supplementary CSV, read-out: % inhibition

Chain of InhA (P9WGR1 whole entry, looked up): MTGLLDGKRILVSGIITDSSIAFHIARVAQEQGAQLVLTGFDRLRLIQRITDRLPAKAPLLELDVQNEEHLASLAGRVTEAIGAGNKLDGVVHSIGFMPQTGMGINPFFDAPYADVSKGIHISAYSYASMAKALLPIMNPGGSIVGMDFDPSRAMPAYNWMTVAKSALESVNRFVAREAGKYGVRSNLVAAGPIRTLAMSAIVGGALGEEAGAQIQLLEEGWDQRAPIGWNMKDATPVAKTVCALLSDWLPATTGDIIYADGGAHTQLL

| Compound | inhibition at 100 µM [1] [%] | inhibition at 100 µM [2] [%] | Inh % (inhibition percentage of InhA) (100 μM compound) [%] | % inhibition (supplementary CSV) [%] |
| --- | --- | --- | --- | --- |
| O=S(=O)(/C=C/c1cccc(C(F)(F)F)c1)Nc1ccccc1 [compound 6, (E)-N-Phenyl-2-(3-(trifluoromethyl)phenyl)ethene-1-sulfonamide] | 54 | 54 | – | – |
| O=S(=O)(/C=C/c1cccc(C(F)(F)F)c1)NC1CCNCC1 [compound 7, (E)-N-(Piperidin-4-yl)-2-(3-(trifluoromethyl)phenyl)ethene-1-sulfonamide] | 15 | 15 | – | – |
| O=S(=O)(/C=C/c1cccc(C(F)(F)F)c1)Nc1cccnc1 [compound 8, (E)-N-(Pyridin-3-yl)-2-(3-(trifluoromethyl)phenyl)ethene-1-sulfonamide] | 17 | 17 | – | – |
| COC(=O)c1ccc(NS(=O)(=O)/C=C/c2cccc(C(F)(F)F)c2)cc1 [compound 9, Methyl-(E)-4-((2-(3-(trifluoromethyl)phenyl)vinyl)sulfonamido)benzoate] | 0 | 0 | – | – |
| CC(C)(C)OC(=O)Nc1ccc(NS(=O)(=O)/C=C/c2cccc(C(F)(F)F)c2)cc1 [compound 10, tert-Butyl-(E)-(4-((2-(3-(trifluoromethyl)phenyl)vinyl)sulfonamido)phenyl)carbamate] | 11 | 11 | – | – |
| Nc1ccc(NS(=O)(=O)/C=C/c2cccc(C(F)(F)F)c2)cc1 [compound 11, (E)-N-(4-Aminophenyl)-2-(3-(trifluoromethyl)phenyl)ethene-1-sulfonamide] | 6 | 6 | – | – |
| COc1ccc(NS(=O)(=O)/C=C/c2cccc(C(F)(F)F)c2)cc1 [compound 12, (E)-N-(4-Methoxyphenyl)-2-(3-(trifluoromethyl)phenyl)ethene-1-sulfonamide] | 15 | 15 | – | – |
| COC(=O)Cc1ccc(NS(=O)(=O)/C=C/c2cccc(C(F)(F)F)c2)cc1 [compound 13, Methyl-(E)-2-(4-((2-(3-(trifluoromethyl)phenyl)vinyl)sulfonamido)phenyl)acetate] | 24 | 24 | – | – |
| CNCc1ccc(NS(=O)(=O)/C=C/c2cccc(C(F)(F)F)c2)cc1 [compound 15, (E)-N-(4-((Methylamino)methyl)phenyl)-2-(3-(trifluoromethyl)phenyl)ethene-1-sulfonamide] | 0 | 0 | – | – |
| CC(=O)NCc1ccc(NS(=O)(=O)/C=C/c2cccc(C(F)(F)F)c2)cc1 [compound 16, (E)-N-(4-((2-(3-(Trifluoromethyl)phenyl)vinyl)sulfonamido)benzyl)acetamide] | 25 | 25 | – | – |
| O=C(O)c1ccc(NS(=O)(=O)/C=C/c2cccc(C(F)(F)F)c2)cc1 [compound 17, (E)-4-((2-(3-(Trifluoromethyl)phenyl)vinyl)sulfonamido)benzoic Acid] | 0 | 0 | – | – |
| O=S(=O)(/C=C/c1cccc(C(F)(F)F)c1)Nc1ccc2c(c1)CNCC2 [compound 20, (E)-N-(1,2,3,4-Tetrahydroisoquinolin-7-yl)-2-(3-(trifluoromethyl)phenyl)ethene-1-sulfonamide] | 0 | 0 | – | – |
| CC(C)(C)c1ccc(S(=O)(=O)Nc2cccc(CN)c2)cc1 [compound 21, N-(3-(Aminomethyl)phenyl)-4-(tert-butyl)benzenesulfonamide] | 40 | 40 | – | – |
| NCc1cccc(NS(=O)(=O)CCc2cccc3ccccc23)c1 [compound 22, N-(3-(Aminomethyl)phenyl)-2-(naphthalen-1-yl)ethane-1-sulfonamide] | 17 | 17 | – | – |
| (E)-4-((2-(3-(Trifluoromethyl)phenyl)vinyl)sulfonamido)benzamide [compound 18] | – | – | 0 | 0 |
